Like-named read-outs stand apart in the source and are kept apart here.
Legend:
Format in all cases: cell-based, human
[1] = tested on: A2780/T cells (PTX-resistant, ABCB1-overexpressing ovarian cancer cells); assay: cells; details: for IC50: read-out: IC50 ± SD
Description: (§1) Sulphorhodamine B (SRB) assays were used for cell density determination, based on sensitive measure of total cellular protein, which perform similarly compared with other proliferation assays such as MTT assay. Briefly, cells were seeded into flat bottomed 96-well plates at an initial density of 7.5×10^3 per well before treatment. […] After removing the medium, cells were fixed in 10% trichloroacetic acid for 1 h at 4° C. and then washed with water five times. 0.4% SRB dissolved in 1% v/v acetic acid was added and incubated […] for staining. The cells were quickly washed with 1% acetic acid and left to dry overnight. The protein bound SRB was solubilized by adding 200 μl 10 mM Tris buffer per well and was measured at wavelengths 490 nm using a plate reader (Spectra MAX 250; Molecular Devices, Sunnyvale, Calif.). The optical density of SRB in each well is directly proportional to the cell number.

[2] = tested on: A549/T cells (PTX-resistant, ABCB1-overexpressing NSCLC cells); assay: SRB cell cytotoxicity / MDR reversal assay; details: for fold reversal: drug alone (reference)
Description: as §1

[3] = tested on: A2780/T cells; assay: Colony formation assay; details: 9 μM nobiletin alone or 0.94 μM PTX alone, 12 days
Excerpt: The A2780/T cells were trypsinized and plated in fresh culture medium at a density of 600 cells/9.6 cm^2 plate. Subsequently, the cells were fixed with 70% ethanol and stained with crystal violet (0.5% in ethanol). The plates were rinsed with phosphate buffered saline (PBS), and the colony numbers were counted using the software of Quantity one-Colony counting.

[4] = tested on: A2780/T cells; assay: Apoptosis analysis by Annexin-V/PI double staining; details: 9 μM nobiletin alone or 0.94 μM PTX alone
Description: After treatment, 1×10^6 cells were collected, washed and suspended in 100 μl of binding buffer (10 mM N-2-hydroxyethylpiperazine-N,-2-ethanesulfonic acid/NaOH, 140 mM NaCl, 2.5 mM CaCl2, pH 7.4). Apoptotic cells were identified by double supravital staining with 5 μl recombinant FITC (fluorescein isothiocyanate)-conjugated Annexin-V and 5 μl PI (50 μg/ml). The cells were stained for […] at room temperature in the dark, and analyzed by fluorescence-activated cell sorting cater-plus flow cytometry. Data acquisition and analysis were performed in BD FACS Aria with FlowJo software.

[5] = tested on: A2780/T cells; assay: Cell cycle analysis (PI, flow cytometry); details: 0.94 μM PTX, no nobiletin
Description: A2780/T cells were harvested 24 hours, 48 hours, or 72 hours after treatment and washed twice with ice-cold PBS. The cells were fixed and permeabilized with 70% ice-cold ethanol overnight at 4° C. or 2 h at −20° C. After one additional wash in PBS, cells were stained with a staining solution containing propidium iodide (PI) ([…]) and RNase A (250 μg/ml) for 30 min at room temperature. They were then pelleted, washed and suspended in PBS to a final concentration of 1×10^6/ml and analyzed by flow cytometry BD FACS Aria (BD Biosciences, San Jose, Calif.).

[6] = tested on: A2780 cells; assay: Cell cycle analysis (PI, flow cytometry); details: A2780, PTX 0.01 μM
[7] = tested on: A2780/T cells; assay: Combination index, Chou-Talalay method (CalcuSyn); details: Homo sapiens, A2780, read-out: Dose PTX at Fa = 0.5 (ED50), CalcuSyn simulation, A2780/T; PTX dose, alone or in the combination
[8] = tested on: A2780/T cells; assay: Intracellular accumulation of doxorubicin and Flutax-2; details: 8 h, 4.5 μM nobiletin or 20 μM QND
[9] = A2780/T, 48 h, drug +0.5 μM nobiletin (N)
[10] = A2780/T, 48 h, drug +1.5 μM nobiletin (N)
[11] = A2780/T, 48 h, drug +4.5 μM nobiletin (N)
[12] = Homo sapiens, A2780, 48 h, A2780/T, 48 h, SRB, drug alone (no nobiletin)
[13] = Homo sapiens, A549, 48 h, 48 h, SRB, drug alone (no nobiletin)

`O=c1[nH]cc(F)c(=O)[nH]1` [5-Fluorouracil] gave a fold reversal [1] of 1.00 fold, an IC50 [1, 9] of 132 ± 23.8 µM and an IC50 [1, 10] of 79.8 ± 9.18 µM. For the same compound, the IC50 [1, 11] was 26.1 ± 1.77 µM, the IC50 [1, 12] was 159 ± 18.3 µM and the IC50 [2, 13] was 134 ± 10.9 µM. The “Fold reversal (IC50 without / with nobiletin)” value ([2]; drug +0.5 μM nobiletin) was 1.26 ± 0.01 fold, the “Fold reversal (IC50 without / with nobiletin)” value ([2]; drug +1.5 μM nobiletin) was 1.99 ± 0.01 fold and the “Fold reversal (IC50 without / with nobiletin)” value ([2]; drug +4.5 μM nobiletin) was 7.94 ± 0.02 fold. For the same compound, the IC50 ([2]; drug +4.5 μM nobiletin (N)) was 16.8 ± 1.36 µM, the “Fold reversal (IC50 without / with nobiletin)” value ([2]; drug +4.5 μM nobiletin, listed as 5-fluorouracil) was 7.94 fold and the fold reversal [2] was 1.00 fold.

In the case of `CC(=O)O[C@H]1C(=O)[C@@]2(C)[C@H]([C@H](OC(=O)c3ccccc3)[C@]3(O)C[C@H](OC(=O)[C@H](O)[C@@H](NC(=O)c4ccccc4)c4ccccc4)C(C)=C1C3(C)C)[C@]1(OC(C)=O)CO[C@@H]1C[C@@H]2O` [Paclitaxel], the “degree of resistance: mean IC50 in A2780/T cells relative to A2780” value [1] is reported as 501 fold, the fold reversal [1] is reported as 1.00 fold and the IC50 ([1]; Homo sapiens, A2780, 48 h) is reported as 2.51 µM. For the same compound, the IC50 [2, 13] was 1.89 ± 0.15 µM, the “Fold reversal (IC50 without / with nobiletin)” value ([2]; drug +0.5 μM nobiletin) was 2.51 ± 0.01 fold and the IC50 ([2]; drug +0.5 μM nobiletin (N)) was 0.75 ± 0.06 µM. The “Fold reversal (IC50 without / with nobiletin)” value ([2]; drug +0.5 μM nobiletin, listed as PTX) was 2.51 fold, the “Fold reversal (IC50 without / with nobiletin)” value ([2]; drug +1.5 μM nobiletin) was 5.65 ± 0.8 fold and the IC50 ([2]; drug +1.5 μM nobiletin (N)) was 0.34 ± 0.02 µM. The “Fold reversal (IC50 without / with nobiletin)” value ([2]; drug +1.5 μM nobiletin, listed as PTX) was 5.65 fold, the “Fold reversal (IC50 without / with nobiletin)” value ([2]; drug +4.5 μM nobiletin) was 22.33 ± 3.6 fold and the IC50 ([2]; drug +4.5 μM nobiletin (N)) was 0.09 ± 0.01 µM. The “Fold reversal (IC50 without / with nobiletin)” value ([2]; drug +4.5 μM nobiletin, listed as PTX) was 22.33 fold, the “Fold reversal (IC50 without / with nobiletin)” value ([2]; drug +4.5 μM nobiletin, listed as paclitaxel) was 22.33 fold and the “Fold reversal (IC50 without / with nobiletin)” value ([2]; drug +9 μM nobiletin) was 62.88 ± 0.98 fold. For the same compound, the IC50 ([2]; drug +9 μM nobiletin (N)) was 0.03 ± 0.004 µM, the “Fold reversal (IC50 without / with nobiletin)” value ([2]; drug +9 μM nobiletin, listed as PTX) was 62.88 fold and the fold reversal [2] was 1.00 fold. The “inhibition of colony formation, single agent” value [3] was “no inhibition”, the “apoptosis induction, single treatment” value [4] was “did not show apoptosis induction” and the G1 phase cells [5] was 72%. The G2 phase cells [5] was 17%, the G1 phase content ([6]; 24 hours) was 46.47% and the G2-M content ([6]; 24 hours) was 31.9%. It also gave a G1 phase content ([6]; 48 hours) of 15.57%, a G2-M content ([6]; 48 hours) of 63.2% and a G1 phase content ([6]; 72 hours) of 5.53%. The G2-M content ([6]; 72 hours) was 80.07% and the EC50 [7] was 4.2 µM.

With `C=C[C@H]1C[N@@]2CC[C@H]1C[C@@H]2[C@@H](O)c1ccnc2ccc(OC)cc12` [QND, quinidine] the “intracellular accumulation of DOX” value ([8]; 5 μM DOX) was “higher than that in untreated A2780/T” and the “intracellular accumulation of Flutax-2” value ([8]; Flutax-2 1 μM) was “higher than that in untreated A2780/T”.

In the case of `COc1cccc2c1C(=O)c1c(O)c3c(c(O)c1C2=O)C[C@@](O)(C(=O)CO)C[C@@H]3O[C@H]1C[C@H](N)[C@H](O)[C@H](C)O1` [Doxorubicin], the “degree of resistance: mean IC50 in A2780/T cells relative to A2780” value [1] is reported as 158 fold, the fold reversal [1] is reported as 1.00 fold and the IC50 [1, 9] is reported as 3.77 ± 0.3 µM. For the same compound, the IC50 [1, 10] was 1.89 ± 0.16 µM, the IC50 [1, 11] was 1.13 ± 0.18 µM and the IC50 ([1]; A2780/T, 48 h, drug +9 μM nobiletin (N)) was 0.38 ± 0.04 µM. The IC50 [1, 12] was 5.97 ± 0.49 µM, the IC50 [2, 13] was 5.97 ± 0.49 µM and the “Fold reversal (IC50 without / with nobiletin)” value ([2]; drug +0.5 μM nobiletin) was 1.42 ± 0.23 fold. The IC50 ([2]; drug +0.5 μM nobiletin (N)) was 4.23 ± 0.35 µM, the “Fold reversal (IC50 without / with nobiletin)” value ([2]; drug +1.5 μM nobiletin) was 2.25 ± 0.37 fold and the IC50 ([2]; drug +1.5 μM nobiletin (N)) was 2.67 ± 0.22 µM. For the same compound, the “Fold reversal (IC50 without / with nobiletin)” value ([2]; drug +4.5 μM nobiletin) was 5.01 ± 0.01 fold, the IC50 ([2]; drug +4.5 μM nobiletin (N)) was 1.19 ± 0.1 µM and the “Fold reversal (IC50 without / with nobiletin)” value ([2]; drug +4.5 μM nobiletin, listed as doxorubicin) was 5.01 fold. For the same compound, the fold reversal [2] was 1.00 fold.

`COc1cccc2c1C(=O)c1c(O)c3c(c(O)c1C2=O)C[C@@](O)(C(C)=O)C[C@@H]3O[C@H]1C[C@H](N)[C@H](O)[C@H](C)O1` [Daunorubicin] showed a fold reversal [1] of 1.00 fold, an IC50 ([1]; Homo sapiens, A2780, 48 h) of 11.9 ± 0.97 µM and an IC50 [2, 13] of 10.1 ± 1.63 µM. The “Fold reversal (IC50 without / with nobiletin)” value ([2]; drug +0.5 μM nobiletin) was 1.68 ± 0.14 fold, the IC50 ([2]; drug +0.5 μM nobiletin (N)) was 5.97 ± 0.49 µM and the “Fold reversal (IC50 without / with nobiletin)” value ([2]; drug +1.5 μM nobiletin) was 3.55 ± 0.01 fold. The IC50 ([2]; drug +1.5 μM nobiletin (N)) was 2.84 ± 0.46 µM, the “Fold reversal (IC50 without / with nobiletin)” value ([2]; drug +4.5 μM nobiletin) was 14.17 ± 0.04 fold and the IC50 ([2]; drug +4.5 μM nobiletin (N)) was 0.71 ± 0.13 µM. For the same compound, the “Fold reversal (IC50 without / with nobiletin)” value ([2]; drug +4.5 μM nobiletin, listed as daunorubicin) was 14.17 fold and the fold reversal [2] was 1.00 fold.

In the case of `CC(=O)O[C@@]12CO[C@@H]1C[C@H](O)[C@@]1(C)C(=O)[C@H](O)C3=C(C)[C@@H](OC(=O)[C@H](O)[C@@H](NC(=O)OC(C)(C)C)c4ccccc4)C[C@@](O)([C@@H](OC(=O)c4ccccc4)[C@H]21)C3(C)C` [Docetaxel], the fold reversal [1] is reported as 1.00 fold, the IC50 [1, 9] is reported as 8.97 ± 1.46 µM and the IC50 [1, 11] is reported as 1.13 ± 0.18 µM. It also gave an IC50 [1, 12] of 17.9 ± 2.89 µM, an IC50 ([1]; Homo sapiens, A2780, 48 h, A2780/T, 48 h, drug +1.5 μM nobiletin (N)) of 3.57 ± 0.58 µM and an IC50 [2, 13] of 13.4 ± 1.09 µM. The “Fold reversal (IC50 without / with nobiletin)” value ([2]; drug +0.5 μM nobiletin) was 1.59 ± 0.01 fold, the IC50 ([2]; drug +0.5 μM nobiletin (N)) was 8.43 ± 0.69 µM and the “Fold reversal (IC50 without / with nobiletin)” value ([2]; drug +1.5 μM nobiletin) was 5.05 ± 0.82 fold. For the same compound, the IC50 ([2]; drug +1.5 μM nobiletin (N)) was 2.67 ± 0.22 µM, the “Fold reversal (IC50 without / with nobiletin)” value ([2]; drug +4.5 μM nobiletin) was 19.18 ± 4.59 fold and the IC50 ([2]; drug +4.5 μM nobiletin (N)) was 0.71 ± 0.11 µM. The “Fold reversal (IC50 without / with nobiletin)” value ([2]; drug +4.5 μM nobiletin, listed as docetaxel) was 19.18 fold and the fold reversal [2] was 1.00 fold.
